From US20210046071A1, “TETRACYCLIC COMPOUNDS AND THEIR SALTS, COMPOSITIONS, AND METHODS FOR THEIR USE” (Senhwa Biosciences, Inc., priority 2019, published 2021)
Read-outs that look alike come from different tables or passages of the source.

Test: Pharmacokinetic studies in human, Compound I in plasma by LC/MS/MS
Format: in vivo
Conditions: human, plasma, iv; for AUC(0-inf): read-out: AUC∞; for half-life: read-out: T1/2 (converted)
Experimental: Pharmacokinetic studies and dose escalation studies were conducted in adult patients with metastatic, recurrent, locally, advanced, or unresectable solid malignancy (patients with histologically and/or cytologically confirmed solid malignancy), who received prior anti-cancer treatment(s) until disease progression, at 10 different dose levels of Compound I. Groups 1-7 were administered intravenously on days 1 and 8 of a 4-week cycle at 50, 100, 150, 200, 250, 325, and 475 mg/m^2 (lyophilized formulation), respectively. Groups 8-10 were administered intravenously on days 1,8, and 15 of a 4-week cycle at 325, 475, and 650 mg/m^2 (lyophilized formulation), respectively. Each patient received each dose over 1 hour by IV infusion on days described above.
They lyophilized formulation was reconstituted with 5% glucose in sterile water, or similar biologically acceptable fluid, for IV infusion.
For patients in Groups 1-7, blood samples were typically collected at Day 1 at pre-infusion (t=−1 h), during infusion at about 30 minutes (t=−0.5 h), immediately post infusion (t=0 h), 30 min post-infusion, 1 h post-infusion, 2 h post-infusion, 4 h post-infusion, and 6 h post-infusion, as well as at about 24 h post-infusion, 48 h post-infusion, and 72 h post-infusion. On Day 8, blood samples were typically collected at pre-infusion (t=−1 h), during infusion at about 30 minutes (t=−0.5 h), immediately post infusion (t=0 h), 30 min post-infusion, 1 h post-infusion, 2 h post-infusion, 4 h post-infusion, and 6 h post-infusion, as well as at about 24 h post-infusion, and 168 h post-infusion (Day 15).
For patients in Groups 8-10, blood samples were typically collected at Day 1 at pre-infusion (t=−1 h), during infusion at about 30 minutes (t=−0.5 h), immediately post infusion (t=0 h), 30 min post-infusion, 1 h post-infusion, 2 h post-infusion, 4 h post-infusion, and 6 h post-infusion, as well as at about 24 h post-infusion, 48 h post-infusion, and 72 h post-infusion. On Day 8, blood samples were typically collected at pre-infusion (t=−1 h). On Day 15, blood samples were typically collected at pre-infusion (t=−1 h), during infusion at about 30 minutes (t=−0.5 h), immediately post infusion (t=0 h), 30 min post-infusion, 1 h post-infusion, 2 h post-infusion, 4 h post-infusion, and 6 h post-infusion, as well as at about 24 h post-infusion, and 168 h post-infusion (Day 22).
Levels of Compound I in patient's plasma were analyzed by liquid chromatography tandem mass spectrometry (LC/MS/MS) assay. Experimental procedures of the validated methods are summarized below. The pharmacokinetic parameters after first dose and second dose for Groups 1-7 and after first dose and third dose for Groups 8-10 are shown in Tables 2A-2J. In Tables 2A-2J: SD=standard deviation; Cmax=maximum observed concentration; D=dose; Tmax=time to maximum observed concentration; T1/2=elimination half-life; Vd=volume of distribution; CL=drug clearance; and AUC∞=area under the concentration-time curve from time zero to infinity (total exposure).
The concentrations of Compound I in human plasma samples collected from subjects of as discussed above. Compound I concentrations in plasma samples were measured based on 9 levels of calibration standards from 5.00 to 5000 ng/mL, and 3 levels of QC at 15.0 ng/mL (low), 2500 ng/mL (mid), and 4000 ng/mL (high).
Two reference standard master stock solutions of Compound I were prepared by dissolving the Compound 1 reference standard with 50:50:0.1 ACN:diH2O:FA (v/v/v) and sonicating for 7 minutes (diH2O=deionized water). The resulting solutions were further diluted with 50:50:0.1 ACN:diH2O:FA (v/v/v) into a series of working stock solutions (WSS) for spiking of Compound I calibration standards and QC samples. The master stock solutions were prepared fresh on the day of assay, or stored at nominal 2° C. to 8° C. for later use. Master stock solutions were used within the stability timeframe. […]

[1] = 150 mg/m2, Group 3, 150 mg/m^2 IV, Day 8, mean, n = 4
[2] = 200 mg/m2, Group 4, 200 mg/m^2 IV, Day 1, mean, n = 4
[3] = 200 mg/m2, Group 4, 200 mg/m^2 IV, Day 8, mean, n = 4
[4] = 250 mg/m2, Group 5, 250 mg/m^2 IV, Day 1, mean, n = 3
[5] = 250 mg/m2, Group 5, 250 mg/m^2 IV, Day 8, mean, n = 3
[6] = 325 mg/m2, Group 6, 325 mg/m^2 IV, Day 1, mean, n = 3
[7] = 325 mg/m2, Group 6, 325 mg/m^2 IV, Day 8, mean, n = 3
[8] = 325 mg/m2, Group 8, 325 mg/m^2 IV, Day 1, mean, n = 3
[9] = 325 mg/m2, Group 8, 325 mg/m^2 IV, Day 1, mean, n = 4
[10] = 325 mg/m2, Group 8, 325 mg/m^2 IV, Day 15, mean, n = 4
[11] = 475 mg/m2, Group 7, 475 mg/m^2 IV, Day 1, mean, n = 3
[12] = 475 mg/m2, Group 7, 475 mg/m^2 IV, Day 8, mean, n = 3
[13] = 475 mg/m2, Group 9, 475 mg/m^2 IV, Day 1, mean, n = 5
[14] = 475 mg/m2, Group 9, 475 mg/m^2 IV, Day 15, mean, n = 4
[15] = 475 mg/m2, Group 9, 475 mg/m^2 IV, Day 15, mean, n = 5
[16] = 650 mg/m2, Group 10, 650 mg/m^2 IV, Day 1, mean, n = 5
[17] = 650 mg/m2, Group 10, 650 mg/m^2 IV, Day 15, mean, n = 5

Cc1cnc(CNC(=O)c2c(=O)c3ccc(N4CCCN(C)CC4)nc3n3c2sc2ccccc23)cn1 [Compound I, 2-(4-Methyl-[1,4]diazepan-1-yl)-5-oxo-5H-7-thia-1,11b-diaza-benzo[c]fluorene-6-carboxylic acid (5-methyl-pyrazin-2-ylmethyl)-amide]
Tmax [1]: 0.646 h | Vd [1]: 939 L | clearance [1]: 203 mL/min | AUC(0-inf) [1]: 21800 ng·h/mL | half-life [1]: 59.1 h | Cmax [2]: 8950 ng/mL | Tmax [2]: 0.854 h | Vd [2]: 1700 L | clearance [2]: 505 mL/min | AUC(0-inf) [2]: 15100 ng·h/mL | half-life [2]: 41.9 h | Cmax [3]: 1180 ng/mL | Tmax [3]: 1.3 h | Vd [3]: 2050 L | clearance [3]: 470 mL/min | AUC(0-inf) [3]: 16200 ng·h/mL | half-life [3]: 53.5 h | Cmax [4]: 1410 ng/mL | Tmax [4]: 1.19 h | Vd [4]: 1450 L | clearance [4]: 348 mL/min | AUC(0-inf) [4]: 20900 ng·h/mL | half-life [4]: 47.9 h | Cmax [5]: 771 ng/mL | Tmax [5]: 1.2 h | Vd [5]: 2160 L | clearance [5]: 258 mL/min | AUC(0-inf) [5]: 28100 ng·h/mL | half-life [5]: 96.9 h | Cmax [6]: 1070 ng/mL | Tmax [6]: 1.02 h | Vd [6]: 1930 L | clearance [6]: 390 mL/min | AUC(0-inf) [6]: 23500 ng·h/mL | half-life [6]: 66.9 h | Cmax [7]: 1040 ng/mL | Tmax [7]: 0.672 h | Vd [7]: 2220 L | clearance [7]: 307 mL/min | AUC(0-inf) [7]: 29000 ng·h/mL | half-life [7]: 86.5 h | Vd [8]: 2320 L | clearance [8]: 322 mL/min | AUC(0-inf) [8]: 29100 ng·h/mL | half-life [8]: 83.4 h | Cmax [9]: 1140 ng/mL | Tmax [9]: 0.767 h | Cmax [10]: 21100 ng/mL | Tmax [10]: 0.783 h | Cmax [11]: 1940 ng/mL | Tmax [11]: 0.861 h | Vd [11]: 2590 L | clearance [11]: 418 mL/min | AUC(0-inf) [11]: 36200 ng·h/mL | half-life [11]: 81.8 h | Cmax [12]: 1710 ng/mL | Tmax [12]: 0.678 h | Vd [12]: 2430 L | clearance [12]: 482 mL/min | AUC(0-inf) [12]: 35400 ng·h/mL | half-life [12]: 73.8 h | Cmax [13]: 1750 ng/mL | Tmax [13]: 1.18 h | Vd [13]: 2320 L | clearance [13]: 460 mL/min | AUC(0-inf) [13]: 36300 ng·h/mL | half-life [13]: 61.5 h | Vd [14]: 2570 L | clearance [14]: 532 mL/min | AUC(0-inf) [14]: 32500 ng·h/mL | half-life [14]: 59 h | Cmax [15]: 2870 ng/mL | Tmax [15]: 0.737 h | Cmax [16]: 3080 ng/mL | Tmax [16]: 0.81 h | Vd [16]: 3700 L | AUC(0-inf) [16]: 57500 ng·h/mL | half-life [16]: 122 h | Cmax [17]: 4170 ng/mL | Tmax [17]: 1.05 h | Vd [17]: 2620 L | AUC(0-inf) [17]: 62200 ng·h/mL | half-life [17]: 93.6 h
